# Read-outs that look alike come from different tables or passages of the source.
# Experiments:
# [1] = Effect on respiration, blood pressure, heart rate and electrocardiogram; assay type: in vivo, Beagle dogs; settings: dog, in vivo, iv; injected into brachial veins, anesthetized Beagle dogs; read-out: maximum dosage not effected on respiration, blood pressure, heart rate and electrocardiogram
# Method: Beagle dogs of both sexes weighing about 10 kg were anesthetized with pentobarbital sodium (30 mg/kg, i.v.), and immobilized in the supine position. Test compounds dissolved in physiological saline solution were injected into the brachial veins of the animals and the arteries at cannulated positions were treated with heparin sodium as anticoagulant.
# The respiration rate of each animal was estimated with a respirometer (Nihonkohden, RP-3) through a tracheal cannula, the blood pressure with an electro-haemodynamometer (Nihonkohden, MP-4T) attached surgically to the femoral artery, and the heart rate with a pulse-rate tachometer (Nihonkohden, RT-2) through the trigger pulse of the blood pressure.
# [2] = Solubility in water at 25° C.; assay type: physicochemical; settings: amount soluble in 1 ml water at 25° C.
# [3] = cited from earlier work
# leukemia L-1210 = assay: Antitumor activity against leukemia L-1210 implanted in BDF1 mice (ILS, 60 days survivors); assay type: in vivo
# Source text: Test compounds were given to BDF1 mice 24 hrs after implantation of 10^6 cells of leukemia L-1210 in each animal, through single intraperitoneal administration, intraperitoneal administration for 5 successive days, single oral administration or oral administration for 5 successive days, whereupon the increase in life span (referred to as "ILS") and number of 60 days survivors of test animals were estimated, said test of antitumor activity being that according to the method of the National Cancer Center, Tokyo [A. Hoshi et al: Farmashia, 9 (1973), 464]. In the tests, the compounds were dissolved in physiological saline solution just before administration.
# ^a i.p.: intraperitoneal administration p.o: oral administration
# D1 : single administration D1~5 : administration for 5
# ^b percentage calculated from mean survival time over control
# ^c survivors/six animals
# [4] = Diabetogenic activity (blood glucose concentration after intravenous administration); assay type: in vivo, male Wister rats
# Method: 40-96 mg/kg of the test compounds were administered intravenously to starved male Wister rats weighing 240-260 g each, and the blood glucose concentrations of the test animals were estimated by the glucose exidase method [L. L. Saloman et al: Anal. Chem., 31 (1959), 453], in which test the compounds were dissolved in physiological saline solution just before administration. […]
# Acute toxicity (LD50) = assay type: in vivo, male Wister rats; settings: rat, in vivo, after 1 week
# Method: Test compounds were dissolved in physiological saline solution just before their dosage and administered to male Wister rats, intraperitoneally, intravenously and orally. After 1 week, the LD50 of each compound was calculated from the mortality of the test animals by the Lichfield-Wilcoxon Method.
# i.v.: intravenous administration
# [5] = known compounds, generally seen
# [6] = 40 mg/kg i.v., 0 hr after treatment
# [7] = 40 mg/kg i.v., 2 hr after treatment
# [8] = 40 mg/kg i.v., 4 hr after treatment
# [9] = 40 mg/kg i.v., 7 hr after treatment
# [10] = 40 mg/kg i.v., 10 hr after treatment
# [11] = 40 mg/kg i.v., 24 hr after treatment
# [12] = 40 mg/kg i.v., 48 hr after treatment
# [13] = 60 mg/kg i.v., 0 hr after treatment
# [14] = 60 mg/kg i.v., 2 hr after treatment
# [15] = 60 mg/kg i.v., 4 hr after treatment
# [16] = 60 mg/kg i.v., 7 hr after treatment
# [17] = 60 mg/kg i.v., 10 hr after treatment
# [18] = 60 mg/kg i.v., 24 hr after treatment
# [19] = 60 mg/kg i.v., 48 hr after treatment
compound,measurement,setting,value
"CO[C@H]1O[C@H](CO)[C@@H](O)[C@H](O)[C@H]1NC(=O)N(CCCl)N=O [Example 2MCαG, 1-(2-chloroethyl)-3-(methyl α-D-glucopyranos-2-yl)-1-nitrosourea]",NOAEL,[1],30 mg/kg
same,solubility,[2],45 mg/mL
same,"diabetogenic activity, decreasing order",[3]; [5],SZ>DCNU>GANU> 2MCαG≈6MCαG
same,ILS,"leukemia L-1210; 0.5 mg/kg/day, i.p. D1~5",15%
same,ILS,"leukemia L-1210; 1.0 mg/kg/day, i.p. D1~5",48%
same,ILS,"leukemia L-1210; 2.0 mg/kg/day, i.p. D1~5",> 249%
same,Survivors (60 days),"leukemia L-1210; 2.0 mg/kg/day, i.p. D1~5",1/6
same,ILS,"leukemia L-1210; 2.0 mg/kg/day, p.o. D1~5",> 143%
same,Survivors (60 days),"leukemia L-1210; 2.0 mg/kg/day, p.o. D1~5",1/6
same,ILS,"leukemia L-1210; 3.2 mg/kg/day, i.p. D1~5",> 394%
same,Survivors (60 days),"leukemia L-1210; 3.2 mg/kg/day, i.p. D1~5",3/6
same,ILS,"leukemia L-1210; 3.2 mg/kg/day, p.o. D1~5",> 246%
same,Survivors (60 days),"leukemia L-1210; 3.2 mg/kg/day, p.o. D1~5",2/6
same,ILS,"leukemia L-1210; 4.0 mg/kg/day, i.p. D1~5",> 349%
same,Survivors (60 days),"leukemia L-1210; 4.0 mg/kg/day, i.p. D1~5",2/6
same,ILS,"leukemia L-1210; 6.3 mg/kg/day, i.p. D1",> 128%
same,ILS,"leukemia L-1210; 6.3 mg/kg/day, i.p. D1~5",> 198%
same,Survivors (60 days),"leukemia L-1210; 6.3 mg/kg/day, i.p. D1~5",1/6
same,ILS,"leukemia L-1210; 6.3 mg/kg/day, p.o. D1~5",> 380%
same,Survivors (60 days),"leukemia L-1210; 6.3 mg/kg/day, p.o. D1~5",3/6
same,ILS,"leukemia L-1210; 8.0 mg/kg/day, i.p. D1",> 432%
same,Survivors (60 days),"leukemia L-1210; 8.0 mg/kg/day, i.p. D1",3/6
same,ILS,"leukemia L-1210; 10.0 mg/kg/day, i.p. D1",> 717%
same,Survivors (60 days),"leukemia L-1210; 10.0 mg/kg/day, i.p. D1",6/6
same,ILS,"leukemia L-1210; 10.0 mg/kg/day, i.p. D1~5",> 190%
same,Survivors (60 days),"leukemia L-1210; 10.0 mg/kg/day, i.p. D1~5",1/6
same,ILS,"leukemia L-1210; 12.5 mg/kg/day, i.p. D1~5",> 160%
same,Survivors (60 days),"leukemia L-1210; 12.5 mg/kg/day, i.p. D1~5",1.6 survivors/six animals
same,ILS,"leukemia L-1210; 12.5 mg/kg/day, p.o. D1~5",> 211%
same,Survivors (60 days),"leukemia L-1210; 12.5 mg/kg/day, p.o. D1~5",2/6
same,ILS,"leukemia L-1210; 20.0 mg/kg/day, i.p. D1",> 717%
same,Survivors (60 days),"leukemia L-1210; 20.0 mg/kg/day, i.p. D1",6/6
same,ILS,"leukemia L-1210; 20.0 mg/kg/day, i.p. D1~5",58%
same,ILS,"leukemia L-1210; 25.0 mg/kg/day, i.p. D1",> 539%
same,Survivors (60 days),"leukemia L-1210; 25.0 mg/kg/day, i.p. D1",4/6
same,Blood Glucose Concentration,[4]; [6],71.0 mg/dL
same,Blood Glucose Concentration,[4]; [7],73.5 mg/dL
same,Blood Glucose Concentration,[4]; [8],70.6 mg/dL
same,Blood Glucose Concentration,[4]; [9],72.3 mg/dL
same,Blood Glucose Concentration,[4]; [10],68.3 mg/dL
same,Blood Glucose Concentration,[4]; [11],72.7 mg/dL
same,Blood Glucose Concentration,[4]; [12],70.4 mg/dL
same,Blood Glucose Concentration,[4]; [13],70.4 mg/dL
same,Blood Glucose Concentration,[4]; [14],74.2 mg/dL
same,Blood Glucose Concentration,[4]; [15],68.2 mg/dL
same,Blood Glucose Concentration,[4]; [16],68.7 mg/dL
same,Blood Glucose Concentration,[4]; [17],67.5 mg/dL
same,Blood Glucose Concentration,[4]; [18],73.8 mg/dL
same,Blood Glucose Concentration,[4]; [19],70.8 mg/dL
same,"blood glucose concentrations versus control, in words","[4]; i.v., rats",substantially the same blood glucose concentrations as that in the control
same,LD50 at 168 h,Acute toxicity (LD50); ip,48 mg/kg
same,LD50 at 168 h,Acute toxicity (LD50); po,49 mg/kg
"O=NN(CCCl)C(=O)N[C@@H]1O[C@H](CO)[C@@H](O)[C@H](O)[C@H]1O [GANU, 1-(2-chloroethyl)-3-(β-D-glucopyranosyl)-1-nitrosourea]",NOAEL,[1],10 mg/kg
same,"diabetogenic activity, decreasing order",[3]; [5],SZ>DCNU>GANU> 2MCαG≈6MCαG
same,ILS,"leukemia L-1210; 1.0 mg/kg/day, i.p. D1",42%
same,ILS,"leukemia L-1210; 5.0 mg/kg/day, i.p. D1",> 280%
same,Survivors (60 days),"leukemia L-1210; 5.0 mg/kg/day, i.p. D1",2/6
same,ILS,"leukemia L-1210; 5.0 mg/kg/day, p.o. D1",5%
same,ILS,"leukemia L-1210; 10.0 mg/kg/day, i.p. D1",> 295%
same,Survivors (60 days),"leukemia L-1210; 10.0 mg/kg/day, i.p. D1",2/6
same,ILS,"leukemia L-1210; 10.0 mg/kg/day, p.o. D1",45%
same,ILS,"leukemia L-1210; 15.0 mg/kg/day, i.p. D1",> 507%
same,Survivors (60 days),"leukemia L-1210; 15.0 mg/kg/day, i.p. D1",5/6
same,ILS,"leukemia L-1210; 20.0 mg/kg/day, i.p. D1",> 518%
same,Survivors (60 days),"leukemia L-1210; 20.0 mg/kg/day, i.p. D1",5/6
same,ILS,"leukemia L-1210; 20.0 mg/kg/day, p.o. D1",75%
same,ILS,"leukemia L-1210; 25.0 mg/kg/day, i.p. D1",> 472%
same,Survivors (60 days),"leukemia L-1210; 25.0 mg/kg/day, i.p. D1",5/6
same,ILS,"leukemia L-1210; 25.0 mg/kg/day, p.o. D1",110%
same,ILS,"leukemia L-1210; 35.0 mg/kg/day, p.o. D1",70%
same,Blood Glucose Concentration,[4]; [6],67.8 mg/dL
same,Blood Glucose Concentration,[4]; [7],70.4 mg/dL
same,Blood Glucose Concentration,[4]; [8],71.3 mg/dL
same,Blood Glucose Concentration,[4]; [9],94.4 mg/dL
same,Blood Glucose Concentration,[4]; [10],98.2 mg/dL
same,Blood Glucose Concentration,[4]; [11],120.3 mg/dL
same,Blood Glucose Concentration,[4]; [12],186.5 mg/dL
same,Blood Glucose Concentration,[4]; [13],67.3 mg/dL
same,Blood Glucose Concentration,[4]; [14],71.2 mg/dL
same,Blood Glucose Concentration,[4]; [15],72.6 mg/dL
same,Blood Glucose Concentration,[4]; [16],95.4 mg/dL
same,Blood Glucose Concentration,[4]; [17],105.9 mg/dL
same,Blood Glucose Concentration,[4]; [18],125.5 mg/dL
same,Blood Glucose Concentration,[4]; [19],189.8 mg/dL
same,LD50 at 168 h,Acute toxicity (LD50); ip,24 mg/kg
same,LD50 at 168 h,Acute toxicity (LD50); iv,10 mg/kg
same,LD50 at 168 h,Acute toxicity (LD50); po,21 mg/kg
"CN(N=O)C(=O)N[C@H]1C(O)O[C@H](CO)[C@@H](O)[C@@H]1O (stereo partly drawn) [SZ, 3-(d-glucopyranos-2-yl)-1-methyl-1-nitrosourea]","diabetogenic activity, decreasing order","[3]; rat, in vivo",SZ>DCNU>GANU> 2MCαG≈6MCαG

# Source: patent US4156777A, “Process for producing glucopyranose-nitrosourea compounds and novel compounds included therein” (Tokyo Tanabe Company, Limited, priority 1977, dated 1979)
